Data: publication PMC7595150, “Amorphous solid dispersions of enzalutamide and novel polysaccharide derivatives: investigation of relationships between polymer structure and performance” (Scientific Reports, 2020)
In brackets after ≈: the same amount, converted by molar mass. Marks after values point to notes of the source that are not given here.

Tests used:
[1] = Nucleation induction time of supersaturated enzalutamide solutions with pre-dissolved polymer (UV dip probe); type: physicochemical; conditions: absence of polymers; initial 70 μg/mL enzalutamide, pH 6.5 phosphate buffer, 37 °C
Description: The average time to detect the onset of crystallization for supersaturated solutions of enzalutamide was determined in phosphate buffer (pH 6.5, 50 mM) containing pre-dissolved polymer using an in situ UV dip probe as described by Mosquera-Giraldo et al.[11]. […] For enzalutamide the absorbance maximum is 237 nm and the baseline wavelength used was 446 nm. […] Next, a methanolic solution of enzalutamide (245 µL, 10 mg/mL) was added to the polymeric solution (35 mL) magnetically stirred at 300 rpm and maintained at 37 °C, leading to an initial enzalutamide concentration of 70 µg/mL. The experiments were performed in triplicate.

[2] = Aqueous solubility; type: physicochemical
[3] = cited from earlier work

CNC(=O)c1ccc(N2C(=S)N(c3ccc(C#N)c(C(F)(F)F)c3)C(=O)C2(C)C)cc1F [Enzalutamide]
Nucleation induction time [1]: ~ 15 min
Supersaturation ratio (S, amorphous solubility/crystalline solubility) [2]: approximately 14.5
solubility ([2]; crystalline form): 2.9 µg/mL (≈ 6.24 µM)
Aqueous solubility (amorphous solubility) ([3]; amorphous solubility of the drug): 0.042^a mg/mL
Free drug molecularly dissolved ([3]; when 70 μg/mL enzalutamide is added to buffer, rest is colloidal amorphous aggregates): approximately 42 μg/mL
